ChEMBL document CHEMBL1201862, “PubChem BioAssay data set” (2004)
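Five compound concentrations were applied to cells in 96-well plates for 48 hours; endpoints were derived by simple linear interpolation of the resulting dose-response curve. GI50 marks 50% less growth.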 Activity calls are given as the source filed them. Cut-off read from the data, not from the text of the source: active = GI50 up to about 1.1 µM and inactive = higher.

Legend:
Assay in all cases: NCI-60 cell line screen, 48 h
HCT-15 = tested on: HCT-15
IGROV-1 = tested on: IGROV-1
EKVX = tested on: EKVX
Hs-578T = tested on: Hs-578T
SF-268 = tested on: SF-268
UACC-257 = tested on: UACC-257
SN12C = tested on: SN12C
NCI-H226 = tested on: NCI-H226
K562 = tested on: K562
SK-OV-3 = tested on: SK-OV-3
HCT-116 = tested on: HCT-116
RXF 393 = tested on: RXF 393
PC-3 = tested on: PC-3
MDA-MB-435 = tested on: MDA-MB-435
T47D = tested on: T47D
SNB-75 = tested on: SNB-75
NCI-H460 = tested on: NCI-H460
NCI/ADR-RES = tested on: NCI/ADR-RES
NCI-H23 = tested on: NCI-H23

| SMILES | GI50 (HCT-15) | GI50 (IGROV-1) | GI50 (EKVX) | GI50 (Hs-578T) | GI50 (SF-268) | GI50 (UACC-257) | GI50 (SN12C) | GI50 (NCI-H226) | GI50 (K562) | GI50 (SK-OV-3) | GI50 (HCT-116) | GI50 (RXF 393) | GI50 (PC-3) | GI50 (MDA-MB-435) | GI50 (T47D) | GI50 (SNB-75) | GI50 (NCI-H460) | GI50 (NCI/ADR-RES) | GI50 (NCI-H23) |
| --- | --- | --- | --- | --- | --- | --- | --- | --- | --- | --- | --- | --- | --- | --- | --- | --- | --- | --- | --- |
| Cc1cccc(N2C(=O)C3ON(C(C(N)=O)c4ccccc4)C(c4c5ccccc5c(Cl)c5ccccc45)C3C2=O)c1C (stereo not given) | 7.38 µM | 11.6 µM (inactive) | 9.23 µM (inactive) | 16.6 µM (inactive) | 9.59 µM (inactive) | 6.87 µM (inactive) | 8.07 µM (inactive) | 7.13 µM (inactive) | 12.7 µM (inactive) | 18.8 µM (inactive) | 1.34 µM (inactive) | 5.66 µM (inactive) | 7.78 µM (inactive) | 6.31 µM (inactive) | 9.57 µM (inactive) | 8.05 µM (inactive) | 9.71 µM (inactive) | 10.9 µM (inactive) | 11.6 µM (inactive) |
| COc1ccc(/C=C2\CCS(=O)(=O)c3ccccc3C2=O)cc1OC | 11.9 µM | 7.91 µM (inactive) | 38.2 µM (inactive) | 20.7 µM (inactive) | 29.3 µM (inactive) | 35.5 µM (inactive) | 28.2 µM (inactive) | 29.1 µM (inactive) | > 100 µM (inactive) | 51.3 µM (inactive) | 28.1 µM (inactive) | 54.8 µM (inactive) | 27.5 µM (inactive) | 30.7 µM (inactive) | 32.3 µM (inactive) | 24.9 µM (inactive) | 18.3 µM (inactive) | 28.8 µM (inactive) | 28.8 µM (inactive) |
| N#Cc1cc2c(cc1Cl)Sc1nccn1S2(=O)=O | 1.25 µM | 6.38 µM (inactive) | 14.5 µM (inactive) | 2.68 µM (inactive) | 3.33 µM (inactive) | 2.21 µM (inactive) | 7.57 µM (inactive) | 5.89 µM (inactive) | 2.69 µM (inactive) | 4.47 µM (inactive) | 1.79 µM (inactive) | 4.61 µM (inactive) | 4 µM (inactive) | 4.91 µM (inactive) | 1.99 µM (inactive) | 7.53 µM (inactive) | 9.53 µM (inactive) | 1.68 µM (inactive) | 1.51 µM (inactive) |
| CC(=O)Nc1cc(C(=O)Nc2cc(C(=O)N3CC(CCl)c4c3cc(N)c3ccccc43)nn2C)nn1C (stereo not given) | 0.571 µM | 0.0405 µM (active) | 0.159 µM (active) | 0.176 µM (active) | < 0.0132 µM (active) | 0.186 µM (active) | < 0.01 µM (active) | < 0.0232 µM (active) | 0.0381 µM (active) | 0.0362 µM (active) | 0.0187 µM (active) | 0.0115 µM (active) | 0.101 µM (active) | 0.138 µM (active) | < 0.01 µM (active) | 0.0215 µM (active) | < 0.01 µM (active) | 0.541 µM (active) | < 0.0104 µM (active) |
| NC(=O)/N=C1\NCCC(=O)N1CCc1c[nH]c2ccccc12 | 20 µM | 21.2 µM (inactive) | 14.6 µM (inactive) | 20.5 µM (inactive) | 13.8 µM (inactive) | 18.5 µM (inactive) | 21.9 µM (inactive) | 18.2 µM (inactive) | 12.4 µM (inactive) | 50.7 µM (inactive) | 12.4 µM (inactive) | 12.1 µM (inactive) | 11.9 µM (inactive) | 17.8 µM (inactive) | 27.5 µM (inactive) | 10.2 µM (inactive) | 16.3 µM (inactive) | 17.2 µM (inactive) | 22.7 µM (inactive) |
| CCCCCCCCCCCC[C@@H](O)[C@H]1CCC([C@H](O)CCCCC(=O)CCCCCCCC2=C[C@H](C)OC2=O)O1 (stereo not given in full) | 17.9 µM | > 50 µM (inactive) | 14.1 µM (inactive) | 11.3 µM (inactive) | 18.1 µM (inactive) | 7.96 µM (inactive) | > 39 µM (inactive) | 15.8 µM (inactive) | 2.98 µM (inactive) | > 50 µM (inactive) | 3.01 µM (inactive) | 11.6 µM (inactive) | 14.6 µM (inactive) | > 21.3 µM (inactive) | 15.7 µM (inactive) | > 37.9 µM (inactive) | 2.26 µM (inactive) | 12.6 µM (inactive) | 0.0957 µM (active) |
| COc1c(O)ccc(C2=Cc3ccc(O)cc3OC2)c1OC | 14.1 µM | 25.8 µM (inactive) | 15.1 µM (inactive) | 19.5 µM (inactive) | 20.2 µM (inactive) | 30.3 µM (inactive) | 23 µM (inactive) | 23.4 µM (inactive) | 7.08 µM (inactive) | 24 µM (inactive) | 24.3 µM (inactive) | 18.7 µM (inactive) | 18.6 µM (inactive) | 7.64 µM (inactive) | 25.6 µM (inactive) | 14.9 µM (inactive) | 31 µM (inactive) | 14.5 µM (inactive) | 22.3 µM (inactive) |
| Cc1ccc(S(=O)(=O)N2CCCCN(S(=O)(=O)c3ccc(C)cc3)Cc3ccccc3OCCOCCOc3c4cccc3Cc3cccc5c3OCCOCCOc3ccccc3CN(S(=O)(=O)c3ccc(C)cc3)CCCN(S(=O)(=O)c3ccc(C)cc3)Cc3ccccc3OCCOCCOc3c(cccc3C4)Cc3cccc(c3OCCOCCOc3ccccc3C2)C5)cc1 | > 100 µM | > 100 µM (inactive) | > 100 µM (inactive) | > 100 µM (inactive) | > 100 µM (inactive) | > 100 µM (inactive) | > 100 µM (inactive) | > 100 µM (inactive) | > 100 µM (inactive) | > 100 µM (inactive) | > 100 µM (inactive) | > 100 µM (inactive) | > 100 µM (inactive) | > 100 µM (inactive) | > 100 µM (inactive) | > 100 µM (inactive) | > 100 µM (inactive) | > 100 µM (inactive) | > 100 µM (inactive) |
| O=C1c2ccccc2C(=O)[C@@]23O[C@@]12C1(Oc2cccc4cccc(c24)O1)[C@@H]1O[C@@H]1[C@@H]3O | 5.01 µM | 13.6 µM (inactive) | 20.5 µM (inactive) | 14.9 µM (inactive) | 9.68 µM (inactive) | 15.8 µM (inactive) | 11.6 µM (inactive) | 8.39 µM (inactive) | 2.23 µM (inactive) | 15.1 µM (inactive) | 4.4 µM (inactive) | 2.95 µM (inactive) | 15.2 µM (inactive) | 17.2 µM (inactive) | 9.16 µM (inactive) | 10.7 µM (inactive) | 9.86 µM (inactive) | 5.05 µM (inactive) | 13.6 µM (inactive) |
| CC1(C)OC(=C(C#N)C#N)C(C#N)=C1/C=C/c1ccncc1 | 2.03 µM | 2.17 µM (inactive) | 2.32 µM (inactive) | 3.33 µM (inactive) | 2.21 µM (inactive) | 2.95 µM (inactive) | 2.39 µM (inactive) | 2.43 µM (inactive) | 3.14 µM (inactive) | 4.66 µM (inactive) | 1.91 µM (inactive) | 2.29 µM (inactive) | 2.29 µM (inactive) | 3.45 µM (inactive) | 2.48 µM (inactive) | 3.05 µM (inactive) | 6.53 µM (inactive) | 2.03 µM (inactive) | 2.35 µM (inactive) |
| COc1cc([C@@H]2C3C(=O)c4ccccc4C3[C@@H](c3cc(OC)c(OC)c(OC)c3)C23Cc2ccccc2C3=O)cc(OC)c1OC (stereo not given in full) | > 100 µM | 24.3 µM (inactive) | > 100 µM (inactive) | > 100 µM (inactive) | > 100 µM (inactive) | > 100 µM (inactive) | > 100 µM (inactive) | > 100 µM (inactive) | > 100 µM (inactive) | > 100 µM (inactive) | > 100 µM (inactive) | > 100 µM (inactive) | > 100 µM (inactive) | > 100 µM (inactive) | > 100 µM (inactive) | 21.8 µM (inactive) | > 100 µM (inactive) | > 100 µM (inactive) | > 100 µM (inactive) |
| CC(C)NC(=O)OCc1c(COC(=O)NC(C)C)c(-c2cc[n+](COC(=O)C3CCCCC3)cc2)n2c1CCC2 | > 100 µM | > 100 µM (inactive) | > 100 µM (inactive) | > 100 µM (inactive) | 91.2 µM (inactive) | > 100 µM (inactive) | > 100 µM (inactive) | > 100 µM (inactive) | > 100 µM (inactive) | > 100 µM (inactive) | > 100 µM (inactive) | > 100 µM (inactive) | > 100 µM (inactive) | > 100 µM (inactive) | > 100 µM (inactive) | 43.4 µM (inactive) | 70 µM (inactive) | > 100 µM (inactive) | > 100 µM (inactive) |
| Cc1cccc2cc3ccc4ccccc4c3cc12 | 47 µM | 55 µM (inactive) | 21.2 µM (inactive) | > 100 µM (inactive) | > 100 µM (inactive) | 20 µM (inactive) | 51.6 µM (inactive) | 37 µM (inactive) | 63.1 µM (inactive) | > 100 µM (inactive) | 30 µM (inactive) | 75.2 µM (inactive) | 66.5 µM (inactive) | 47.6 µM (inactive) | 22.1 µM (inactive) | 69.2 µM (inactive) | 25.4 µM (inactive) | > 100 µM (inactive) | 54.5 µM (inactive) |
| COc1ccc(OCc2nc3cc(C(F)(F)F)ccc3nc2-c2ccccc2)cc1 | > 100 µM | – | > 100 µM (inactive) | > 100 µM (inactive) | > 100 µM (inactive) | > 100 µM (inactive) | > 100 µM (inactive) | > 100 µM (inactive) | > 100 µM (inactive) | > 100 µM (inactive) | > 100 µM (inactive) | > 100 µM (inactive) | > 100 µM (inactive) | > 100 µM (inactive) | 13.5 µM (inactive) | > 100 µM (inactive) | > 100 µM (inactive) | > 100 µM (inactive) | > 100 µM (inactive) |
